In brackets after ≈: the same amount, converted by molar mass.
Test system: HIV-1 (RF)
Assay: HIV RNA assay: microplate based compound evaluation in HIV-1 infected MT-2 cells
Type: cell-based
Settings: Human immunodeficiency virus 1, MT2, 72 h; HIV-1 (RF) infected MT-2 cells, 3 days of culture; virus dilution selected to give this value (inoculum standardisation); read-out: IC90 value (concentration of compound required to reduce the HIV RNA level by 90%)
Procedure: MT-2 and MT-4 cells were maintained in RPMI 1640 supplemented with 5% fetal calf serum (FCS) for MT-2 cells or 10% FCS for MT-4 cells, 2 mM L-glutamine and 50 μg/mL gentamycin, all from Gibco. HIV-1 RF was propagated in MT-4 cells in the same medium. Virus stocks were prepared approximately 10 days after acute infection of MT-4 cells and stored as aliquots at −70° C. Infectious titers of HIV-1 (RF) stocks were 1-3×10^7 PFU (plaque forming units)/mL as measured by plaque assay on MT-2 cells (see below). Each aliquot of virus stock used for infection was thawed only once.
For evaluation of antiviral efficacy, cells to be infected were subcultured one day prior to infection. […]
Cell lysates or purified RNA in 3 M or 5 M GED were mixed with 5 M GED and capture probe to a final guanidinium isothiocyanate concentration of 3 M and a final biotin oligonucleotide concentration of 30 nM. […] Immobilized alkaline phosphatase activity was detected by addition of 100 μL of 0.2 mM 4-methylumbelliferyl phosphate (MUBP, JBL Scientific) in buffer δ(2.5 M diethanolamine pH 8.9 (JBL Scientific), 10 mM MgCl2, 5 mM zinc acetate dihydrate and 5 mM N-hydroxyethyl-ethylene-diamine-triacetic acid). […] Fluorescence at […] was measured using a microplate fluorometer (Dynateck) exciting at […]. […]

IC90: 0.2 µg/mL (≈ 0.947 µM)
Compound: Nc1ccn([C@H]2CC[C@@H](CO)O2)c(=O)n1 [ddC, 2′,3′-dideoxycytidine]

Reference: patent US6946469B2, “Cyanamide, alkoxyamino, and urea derivatives of 4,4-disubstituted-3,4-dihydro-2(1H)-quinazolinones as HIV reverse transcriptase inhibitors” (Bristol-Myers Squibb Pharma Company, priority 2001, dated 2005)
